Experimental findings from a melting point compilation (Tetko et al.; mined from patent text by program, amines drawn as free bases though some values may be those of a salt) are described below.

Where only a bound is given, the exact number is not on record here.

In the case of `C[C@H]1CCCC[C@H]1Nc1c(C(N)=O)cnn2cccc12`, the melting point is 155 °C.

`CC(C)n1c(C(=O)Cl)c(-c2ccc(F)cc2)c2ccccc2c1=O` returned a melting point of 132 to 134 °C.

In turn, `CC(=O)Nc1nc(-c2ccc(CCC(=O)O)cc2)c(Cc2ccc(S(C)(=O)=O)cc2)s1` registered a melting point of 208 to 210 °C. In turn, `CC(OS(C)(=O)=O)C(=O)O` (single isomer, unassigned; (-)) showed a melting point of 65 to 72 °C. Under `CCOc1cc(CCl)ccc1OCc1nc(-c2ccccc2)oc1C` stands 138 to 139 °C. In turn, `CC(=O)Nc1scc(C(C)(C)C)c1C(N)=O` came in with a melting point of 251 °C. In turn, `CCOC(=O)C1OC1C(=O)Nc1ccccc1` (configuration not stated) gave a melting point of 83 to 84 °C. Under `Cc1nc2ccc(C(=O)O)nc2n1Cc1ccc(-c2ccccc2)cc1` stands over 250 °C; under `CN1CCN(C(=O)c2ccc3n2Cc2ccccc2N(C(=O)c2ccc(C4CCCCC4)cc2)C3)CC1`, 134 to 136 °C; under `COc1c(C=CC(=O)O)cccc1Oc1ccccc1Cl`, 145 to 147 °C. Under `O=C(Nc1ccc(O)cc1[N+](=O)[O-])OCCCl` stands 170 °C. The compound `COc1cc(CN2CCNC(CO)C2)cc(OC)c1OC` (configuration not stated) registered a melting point of 93 °C.

`CN1C(C)(C)CC(OP2OCC3(CO2)COP(OC2CC(C)(C)N(C)C(C)(C)C2)OC3)CC1(C)C` (configuration not stated) had a melting point of 106 °C. Under `COc1cc(C(=O)N2CC2C#N)cc(OC)c1OC` (configuration not stated) stands 86 to 89 °C; under `O=C(NCc1ccc(Cl)cc1)c1cn(CCN2CCOCC2)c2ccc(C=CCO)cc2c1=O`, 146 to 148 °C.

Consider `CCCNC(=O)C(C)=Cc1ccc2ccn(Cc3ccc(C(=O)NS(=O)(=O)c4ccccc4C)cc3OC)c2c1`, for which the melting point was in the range of 224 to 227 °C. Under `CC1CC1n1cc(C(=O)O)c(=O)c2cc(F)c(N3CCC(N)C3)c(F)c21` (configuration not stated) stands 267 to 275 °C. For `OC(c1cccc2nc3n(c12)CCCN3c1ccc(Cl)cc1Cl)C1CC1` (configuration not stated) the value was 208 to 209 °C; for `O=C(C[C@H]1CC[C@@H](C(=O)O)N1Cc1ccccc1)N[C@@H](Cc1ccc(OCc2c(Cl)cccc2Cl)cc1)C(=O)O`, 198 to 202 °C. Under `C=Cc1ccc([C@@H](C)N=Cc2cccc(C)n2)cc1` stands 25 °C; under `CCCNCc1cnc2c(C)c(NC(=O)c3ccc(OC[C@@H]4CCCO4)cc3F)ccc2c1`, 120 to 121 °C.

The compound `O=C(O)C(Cc1ccccc1)Nc1nccc(-c2ccc(OCc3ccccc3)cc2)n1` (configuration not stated) yielded a melting point of 174 °C. Under `COc1ccc(Sc2cc(Cl)ccc2[N+](=O)[O-])c(C(=O)O)c1` stands 184 to 186 °C; under `O=c1[nH]c2ccccc2c(=O)c(Cc2ccccc2)c1O`, 199 to 200 °C; under `N#CCc1ccccc1-c1ccc(C(=O)O)cc1`, 218 to 220 °C. Under `O=C(O)Cc1cn(Cc2ccc(OCc3ccccc3)cc2)nc1-c1ccc(F)cc1` stands 194 to 195 °C.

As to `COC(=O)c1ccc(Cl)cc1NC(=O)CSc1ccc(O)cc1`, the melting point lay in the range of 165 to 168 °C. Under `CCCCC1(O)CCC2C3CCC4=CC(=O)CC(C)C4(C)C3CCC21C` (configuration not stated) stands 85 °C; under `NNC(=S)c1ccc2ccccc2c1`, 166 to 167 °C. For `CC(C)(C)OC(=O)CN(C(=O)CNC(=O)Nc1cccc(-c2nnn[nH]2)c1)c1ccccc1C(=O)c1ccccc1` the value was 163 to 175 °C; for `Cc1sc(S(=O)(=O)NC(C)(C)CO)cc1NC(=O)c1cnn2c(C(F)(F)F)cc(-c3ccc(C(F)(F)F)cc3)nc12`, 225 °C; for `CNc1nc(-c2cccc(N(C)C(=O)c3ccccc3)c2)c2cc(OC)c(OC)cc2n1`, 198 to 200 °C. For `COc1cc(NC(C)CCCN2C(=O)c3ccccc3C2=O)c2ncccc2c1Oc1ccc(Cl)cc1` (configuration not stated) the value was 75 to 77 °C; for `COC(=O)[C@@H]1C[C@H](NS(=O)(=O)c2ccccc2)C(=O)[C@H]2[C@@]1(C)CC[C@H]1C(=O)O[C@H](c3ccoc3)C[C@]21C`, 271 to 273 °C. With `O=c1c2ccccc2cc(Br)c2ccncc12`, the melting point was 167 to 169 °C. In the case of `Cc1cc(NC2=NCCN2C(=O)c2ccccc2)n(C)n1`, the melting point lay in the range of 147 to 149 °C. Under `COc1ccc(OC2c3cc(C#N)ccc3OC(C)(C)C2O)nn1` (configuration not stated) stands 224 to 227 °C. On to `Cc1ncc(Cn2c(CC3CCN(CCc4c(C)nc5sccn5c4=O)CC3)nc3ccccc32)o1`, for which the melting point was found to be 174 °C. For `CCn1cc(C(=O)O)c(=O)c2cc(F)c(-n3cccc3)nc21` the value was 257 to 259 °C; for `N#CC(Cc1c[nH]cn1)(c1ccccc1)c1ccc(Br)cc1` (configuration not stated), 121 to 124 °C. As to `CC1(c2ccccc2)C(=O)Nc2cc(Br)cc(Br)c2C1=O` (configuration not stated), the melting point is 256 to 257 °C.

As for `COCCCNCc1noc([C@H](CCCC2CCCCC2)CC(=O)NO)n1`, the melting point stood at 60 °C. Under `O=C1CCC(c2ccc(C3CCCC3)cc2)=NN1` stands 191 to 192 °C; under `COc1ccc(/C=C(\C#N)c2cccc(Br)c2)cc1OC1CCCC1`, 90 to 91.5 °C.

`O=CNc1nc(S(=O)(=O)Cl)n[nH]1` gave a melting point of 194 to 196 °C. For `CCCS(=O)(=O)c1ccc(NC(=O)CCCCCCCCCC=C(F)F)cc1` the value was 67 to 70 °C.

`CCOC(=O)C(=Cc1ccccc1)S(=O)(=O)NC(C)(C)C` showed a melting point of 111 to 113 °C. In the case of `CCN1CCN(Cc2ccc(-c3ccc4c(Nc5cc(OC)c(Cl)cc5Cl)c(C#N)cnc4c3)o2)CC1`, the melting point lay within 157 to 160 °C. On to `CCc1cc(OC)c(-c2nc(N)sc2CCC2CCCCC2)cc1OC`, for which the melting point is 88 °C. For `CN(C)c1ccc(-c2[nH]c(-c3ccc([N+](=O)[O-])cc3)nc2C(=O)Nc2nccs2)cc1` the value was 250 to 251 °C. Under `CCOC(=O)c1cccc(-c2nc(-c3cc(Cl)sc3Cl)cs2)c1` stands 125 to 126 °C.

Take `COc1cccc(NC(=O)NC2N=C(C)c3ccccc3N(CC(=O)N(C)c3ccccc3)C2=O)c1` (configuration not stated): the melting point lay in the range of 238 to 239 °C. For `N#Cc1c(OCCO)nc(CCO)nc1N1CCc2ccccc2CC1` the value was 118 to 120 °C. `N=C(NC(=O)OCc1ccccc1)NC(=O)OCc1ccccc1` returned a melting point of 149 to 150 °C. Under `Cc1ccccc1C1c2cc(Cl)ccc2OC(=O)C1C(=O)N(C)Cc1cc(C(F)(F)F)cc(C(F)(F)F)c1` (configuration not stated) stands 148 to 149 °C; under `OC(CCc1ccccc1)c1c[nH]cn1` (configuration not stated), 144 to 146 °C. For `CNC1NC(=O)N(c2ccccc2)C(=O)N1N` (configuration not stated) the value was 242 to 244 °C; for `Cc1ccc(Cl)c(Nc2ccccc2C(=O)CS(C)=O)c1Cl` (configuration not stated), 152 to 154 °C; for `O=C1CCCC(=O)N1CCCn1c2ccccc2c2nc3ccccc3nc21`, 312 to 314 °C. For `N#CC(C#N)=CNc1ccc(C(N)=O)cn1` the value was 215 to 218 °C; for `COC(=O)CCCC(Cl)C1SCC2NC(=O)N(Cc3ccccc3)C21` (configuration not stated), 141 to 142 °C; for `CCCSc1ccc2cc[nH]c2c1`, 54 to 55 °C. `COc1cc2ncnc(N3CCC(C(C)CN4C(C)=CC(C)=NS4(=O)=O)CC3)c2cc1OC` (configuration not stated) showed a melting point of 169 to 172 °C. For `Oc1cccc2c1CC1OC1C2` (configuration not stated) the value was 143 to 146 °C. For `CCc1oc2ccccc2c1C(O)c1ccccc1` (configuration not stated) the value was 98 to 99 °C; for `O=C(O)C1=Cc2cc(-c3cccs3)ccc2OC1C(F)(F)F` (configuration not stated), 209 to 212 °C.

Compound `CC(=O)Nc1c(C(=O)c2cccs2)[nH]c2cc(Cl)ccc12` gave a melting point of 228 to 231 °C.

Compound `Cc1nc(N2C[C@@H](C)N(Cc3ccc(F)cc3)C2=O)sc1C(=O)NCc1cccnc1` gave a melting point of 135 to 136 °C.

For the compound `Cc1noc(NS(=O)(=O)c2ccc(Cl)c(Cl)c2Cl)c1Br`, the melting point lay in the range of 110 to 113 °C. Under `Cc1ccc(S(=O)(=O)Cc2ccccc2)cc1` stands 49 to 51 °C. For `CCOC(=O)C1=C(CSC(C)=O)NC=C(C(=O)OC)C1c1cccc(Cl)c1Cl` (single isomer, unassigned; (-)) the value was 155 to 157 °C; for `CCCc1c(O)c(C(C)=O)cc(Cl)c1OCCCOc1c(C(C)=O)ccc(OCC(=O)O)c1CCC`, 119 to 121 °C; for `O=C(O)COc1ccc2c(-c3ccccc3F)noc2c1`, 182 to 184 °C. For `CCCCCCCCCCCCCCCCCCOc1ccc(O)c(C(=O)OC)c1` the value was 53 to 54 °C; for `CNCC(O)c1ccc(F)cc1` (configuration not stated), 77 to 78.8 °C; for `CC(C)(C)c1ccc(CNC(=S)NC(C)(C)c2ccc(NS(C)(=O)=O)cc2)cc1`, 161 to 164 °C. For `C=CCOC(=O)COc1cccc(NC(=O)NCC(=O)N(CC(=O)OC(C)(C)C)c2ccccc2C(=O)c2ccccc2)c1`, the melting point was 134 to 136 °C. Under `O=C(O)C(=O)CC(=O)c1cccn1Cc1ccccc1Br` stands 176 to 180 °C. For `COC(CNc1nc(C)nc2cccc(C)c12)OC` the value was 48 to 49 °C; for `O=C1c2ccccc2C(=O)c2c(NCC(O)CCl)ccc(NCC(O)CCl)c21` (configuration not stated), 167 to 169 °C.

`OCCCCCCCCOc1ccc(-c2ccccc2)cc1` showed a melting point of 101 to 103 °C. For `CCC(C)SC1=C(C#N)C(c2ccccc2)(c2ccccc2)C(=O)N1` (configuration not stated) the value was 155 to 156 °C. With `CC(=O)N1CCc2ccc(C(=O)NO)cc2C1`, the melting point lay in the range of 177 to 181 °C. Under `CCOC(=O)c1ccc(-c2cc(-c3ccc4c(c3)C(C)(C)CCC4(C)C)ccc2-c2ccccc2)cc1` stands 233 to 235 °C; under `CCN(CC)c1ccc(S(=O)(=O)N2CCCCC2=O)cc1`, 118 to 120 °C; under `COc1cc([C@H](C)O)ccc1OCCCN1CCC(c2noc3cc(F)ccc23)CC1`, 138 to 139 °C.

`CC(=O)Oc1ccccc1C(=O)Nc1ccc2oc(C)nc2c1` came in with a melting point of 169 to 171 °C.
